The source made the active and inactive calls. The calls are words filed in the database; no cut-off is given here.
Experiments:
in vitro [1] = conditions: human, microsomes
Description: Metabolic stability in human liver microsomes assessed as total metabolism

in vitro [2] = conditions: rat, microsomes
Description: Metabolic stability in rat microsomes assessed as total metabolism

in vitro [3] = conditions: mouse, microsomes
Description: Metabolic stability in mouse microsomes assessed as total metabolism

physchem = conditions: buffer, pH 7.4
Description: Lipophilicity, logD of the compound in phosphate buffer at pH 7.4

in vivo [4] = conditions: rat
Description: Half life in rat at 3 mg/kg, iv or 10 mg/kg, po

in vivo [5] = conditions: dog, po, 10 mg/kg
in vivo [6] = conditions: mouse, po, 10 mg/kg
in vivo [7] = conditions: mouse, iv, 3 mg/kg
Description: Volume of distribution at steady state in mouse at 3 mg/kg, iv or 10 mg/kg, po

in vivo [8] = conditions: dog
Description: Half life in dog at 3 mg/kg, iv or 10 mg/kg, po

in vivo [9] = conditions: rat, po, 10 mg/kg
MCF7 [10] = format: functional, Homo sapiens; conditions: at 25 mg/kg
Description: Antitumor activity against tamoxifen-sensitive human MCF7 cells xenografted in 17-beta-estradiol pellets implanted nu/nu mouse assessed as tumor regression at 25 mg/kg, po administered bid daily and monitored for biweekly

in vivo [11] = conditions: rat, iv, 3 mg/kg
Description: Clearance in rat at 3 mg/kg, iv or 10 mg/kg, po

in vivo [12] = conditions: dog, iv, 3 mg/kg
Description: Clearance in dog at 3 mg/kg, iv or 10 mg/kg, po

in vivo [13] = conditions: mouse
Description: Half life in mouse at 3 mg/kg, iv or 10 mg/kg, po

in vivo [14] = conditions: dog, iv, 3 mg/kg; remark: listed apart in the source
Description: Volume of distribution at steady state in dog at 3 mg/kg, iv or 10 mg/kg, po

MCF7 [15] = conditions: Homo sapiens
Description: Antitumor activity against tamoxifen-sensitive human MCF7 cells xenografted in 17-beta-estradiol pellets implanted nu/nu mouse assessed as reduction in tumor growth at 2.5 to 12.5 mg/kg, po administered bid daily and monitored for biweekly

in vivo [16] = conditions: rat, iv, 3 mg/kg; remark: listed apart in the source
Description: Volume of distribution at steady state in rat at 3 mg/kg, iv or 10 mg/kg, po

in vivo [17] = conditions: mouse, iv, 3 mg/kg; remark: listed apart in the source
Description: Clearance in mouse at 3 mg/kg, iv or 10 mg/kg, po
Wherever T/C is given: time not given here.

Structure (SMILES): Oc1ccc2c(c1)CCCC(c1ccccc1)=C2c1ccc(O[C@H]2CCN(CCCF)C2)cc1
- metabolised (in vitro [1]): 34%
- metabolised (in vitro [2]): 53%
- metabolised (in vitro [3]): 44%
- logD (physchem): 4

Structure (SMILES): O=C(O)c1ccc2c(c1)CCCC(c1ccc(Cl)cc1Cl)=C2c1ccc(O[C@H]2CCN(CCCF)C2)cc1 [AMCENESTRANT]
- metabolised (in vitro [1]): 12%
- half-life (in vivo [4]): 4.13 h
- bioavailability (in vivo [5]): 54%
- metabolised (in vitro [2]): 4%
- bioavailability (in vivo [6]): 62%
- Vd (in vivo [7]): 6.1 L/kg
- half-life (in vivo [8]): 9.8 h
- bioavailability (in vivo [9]): 76%
- T/C (MCF7 [10]): -28%
- clearance (in vivo [11]): 3.17 mL/min/kg
- metabolised (in vitro [3]): 13%
- clearance (in vivo [12]): 0.5 mL/min/kg
- half-life (in vivo [13]): 1.98 h
- Vd (in vivo [14]): 0.5 L/kg
- TGI (MCF7 [15]): Active
- Vd (in vivo [16]): 0.83 L/kg
- clearance (in vivo [17]): 32 mL/min/kg
- logD (physchem): 3.25

Structure (SMILES): Oc1ccc2c(c1)CCCC(c1cccc(Cl)c1F)=C2c1ccc(O[C@H]2CCN(CCCF)C2)cc1
- metabolised (in vitro [1]): 37%
- metabolised (in vitro [2]): 45%
- metabolised (in vitro [3]): 41%
- logD (physchem): 4.32

Structure (SMILES): Oc1ccc(C2=C(c3ccc(O[C@H]4CCN(CCCF)C4)cc3)c3ccc(O)cc3CCC2)cc1
- metabolised (in vitro [1]): 55%
- metabolised (in vitro [2]): 48%
- metabolised (in vitro [3]): 25%

Structure (SMILES): O=C(O)c1ccc2c(c1)CCCC(c1ccc(SC(F)(F)F)cc1)=C2c1ccc(O[C@H]2CCN(CCCF)C2)cc1
- metabolised (in vitro [1]): 10%
- metabolised (in vitro [2]): 4%
- metabolised (in vitro [3]): 12%
- logD (physchem): 3.46

Structure (SMILES): Oc1ccc2c(c1)CCCC(c1ccc(F)cc1Cl)=C2c1ccc(O[C@H]2CCN(CCCF)C2)cc1
- metabolised (in vitro [1]): 31%
- metabolised (in vitro [2]): 44%
- metabolised (in vitro [3]): 20%
- logD (physchem): 4.59

Structure (SMILES): Oc1ccc2c(c1)CCCC(c1cccnc1)=C2c1ccc(O[C@H]2CCN(CCCF)C2)cc1
- metabolised (in vitro [1]): 70%
- metabolised (in vitro [2]): 80%
- metabolised (in vitro [3]): 31%
- logD (physchem): 2.11

Structure (SMILES): O=C(O)c1ccc2c(c1)CCCC(c1ccc(OC(F)(F)F)cc1)=C2c1ccc(O[C@H]2CCN(CCCF)C2)cc1
- metabolised (in vitro [1]): 20%
- metabolised (in vitro [2]): 2%
- metabolised (in vitro [3]): 10%
- logD (physchem): 3.43

Structure (SMILES): Oc1ccc2c(c1)CCCC(c1ccc3[nH]ccc3c1)=C2c1ccc(O[C@H]2CCN(CCCF)C2)cc1
- metabolised (in vitro [1]): 39%
- metabolised (in vitro [2]): 75%
- metabolised (in vitro [3]): 61%
- logD (physchem): 3.49

Structure (SMILES): Oc1ccc(C2=C(c3ccc(O[C@H]4CCN(CCCF)C4)cc3)c3cc(O)ccc3CCC2)cc1
- metabolised (in vitro [1]): 49%
- metabolised (in vitro [2]): 58%
- metabolised (in vitro [3]): 55%

Structure (SMILES): Oc1ccc2c(c1)CCCC(c1ccc3[nH]ncc3c1)=C2c1ccc(O[C@H]2CCN(CCCF)C2)cc1
- metabolised (in vitro [1]): 72%
- metabolised (in vitro [2]): 74%
- metabolised (in vitro [3]): 65%
- logD (physchem): 2.35

Structure (SMILES): O=C(O)c1ccc2c(c1)CCCC(c1cccc(F)c1Cl)=C2c1ccc(O[C@H]2CCN(CCCF)C2)cc1
- metabolised (in vitro [1]): 28%
- metabolised (in vitro [2]): 2%
- metabolised (in vitro [3]): 0%
- logD (physchem): 2.59

Structure (SMILES): Oc1ccc2c(c1)CCCC(c1ccncc1)=C2c1ccc(O[C@H]2CCN(CCCF)C2)cc1
- metabolised (in vitro [1]): 70%
- metabolised (in vitro [2]): 60%
- metabolised (in vitro [3]): 39%
- logD (physchem): 2.11

Structure (SMILES): Oc1ccc2c(c1)CCCC(c1ccc(Cl)cc1Cl)=C2c1ccc(O[C@H]2CCN(CCCF)C2)cc1
- metabolised (in vitro [1]): 30%
- metabolised (in vitro [2]): 17%
- metabolised (in vitro [3]): 18%
- logD (physchem): 5.27

Structure (SMILES): O=C(O)c1ccc2c(c1)CCCC(c1ccccc1Cl)=C2c1ccc(O[C@H]2CCN(CCCF)C2)cc1
- metabolised (in vitro [1]): 0%
- metabolised (in vitro [2]): 4%
- metabolised (in vitro [3]): 5%
- logD (physchem): 2.63

Structure (SMILES): O=C(O)c1ccc2c(c1)CCCC(c1ccc(Cl)cc1)=C2c1ccc(O[C@H]2CCN(CCCF)C2)cc1
- metabolised (in vitro [1]): 2%
- metabolised (in vitro [2]): 1%
- metabolised (in vitro [3]): 15%
- logD (physchem): 2.9

Structure (SMILES): Oc1ccc2c(c1)C(c1ccc(O[C@H]3CCN(CCCF)C3)cc1)=C(c1ccc(F)cc1Cl)CCC2
- metabolised (in vitro [1]): 57%
- metabolised (in vitro [2]): 80%
- metabolised (in vitro [3]): 30%

Structure (SMILES): Oc1ccc2c(c1)CCCC(c1ccccc1Cl)=C2c1ccc(O[C@H]2CCN(CCCF)C2)cc1
- metabolised (in vitro [1]): 41%
- metabolised (in vitro [2]): 53%
- metabolised (in vitro [3]): 31%
- logD (physchem): 4.11

— ChEMBL document CHEMBL4321847, “Discovery of 6-(2,4-Dichlorophenyl)-5-[4-[(3S)-1-(3-fluoropropyl)pyrrolidin-3-yl]oxyphenyl]-8,9-dihydro-7H-benzo[7]annulene-2-carboxylic acid (SAR439859), a Potent and Selective Estrogen Receptor Degrader (SERD) for the Treatment of Estrogen-Receptor-Positive Breast Cancer” (J Med Chem, 2020)
